How the values were obtained:
Experiment in all cases: relative viability (nuclei count vs DMSO), 5 days (fraction); higher = more cells survive
[1] = compound: CCC1=CN=CN=C1N2CCN(CC2)CC3=NC4=C(N3)C=C(C=C4)C(F)(F)F + O=C(CCCCCCC(=O)Nc1ccccc1)NO [Vorinostat] (partner 1 µM)
In short: (§1)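 Each reported value is a median over duplicate plates. It expresses relative viability: treated-well nuclei count divided by vehicle-well nuclei count. Lung cancer cell lines in 1536-well plates were dosed by pin tool a day after seeding, alone with one drug or with a fixed anchor-drug dose plus five library-drug doses (not always all listed) in √10 steps, and nuclei were counted after 5 days.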

[2] = compound: CCn1c(-c2nonc2N)nc2cnc(Oc3cccc(NC(=O)c4ccc(OCCN5CCOCC5)cc4)c3)cc21 + COc1cccc2cc(-c3nc([C@H]4CC[C@H](C(=O)O)CC4)n4ncnc(N)c34)[nH]c12 [OSI-027] (partner 0.5 µM)
In short: as §1

[3] = compound: CCC1=CN=CN=C1N2CCN(CC2)CC3=NC4=C(N3)C=C(C=C4)C(F)(F)F + N=C(N)NC(=N)NCCc1ccccc1 [Phenformin] (partner 250 µM)
In short: as §1

[4] = compound: N=C1NC(=O)/C(=C/c2ccc(O)cc2)S1 [Mirin] + COc1cc2c(Oc3ccc(NC(=O)C4(C(=O)Nc5ccc(F)cc5)CC4)cc3F)ccnc2cc1OCCCN1CCOCC1 [Foretinib] (partner 0.25 µM)
In short: as §1

UMC-11
relative viability ([1]; first compound 0.04 µM): 0.357
relative viability ([1]; first compound 0.1265 µM): 0.359
relative viability ([1]; first compound 0.4 µM): 0.376
relative viability ([1]; first compound 1.265 µM): 0.304
relative viability ([1]; first compound 4 µM): 0.316
relative viability ([2]; first compound 0.04 µM): 0.44
relative viability ([2]; first compound 0.1265 µM): 0.41
relative viability ([2]; first compound 0.4 µM): 0.355
relative viability ([2]; first compound 1.265 µM): 0.208
relative viability ([2]; first compound 4 µM): 0.179
relative viability ([3]; first compound 0.04 µM): 0.327
relative viability ([3]; first compound 0.1265 µM): 0.3
relative viability ([3]; first compound 0.4 µM): 0.319
relative viability ([3]; first compound 1.265 µM): 0.279
relative viability ([3]; first compound 4 µM): 0.294
relative viability ([4]; first compound 0.25 µM): 1.03
relative viability ([4]; first compound 0.7906 µM): 1.05
relative viability ([4]; first compound 2.5 µM): 1
relative viability ([4]; first compound 7.906 µM): 0.918
relative viability ([4]; first compound 25 µM): 0.61

Source: the supplement of paper PMC10307832
